Source: PMC6222691, “Isoxazolidine Conjugates of N3-Substituted 6-Bromoquinazolinones—Synthesis, Anti-Varizella-Zoster Virus, and Anti-Cytomegalovirus Activity” (Molecules : A Journal of Synthetic Chemistry and Natural …, 2018)
Converted amounts (≈) assume the structure as drawn. Where two headings read alike, the source gives them in different places.

Columns and labels:
PI4KIIIα = test system: PI4KIIIα; design: method as in PMID 23944386; settings: cited from earlier work
[1] = test system: human cytomegalovirus AD-169 Strain; assay: Antiviral activity against human cytomegalovirus AD-169 strain in HEL cell cultures; type: cell-based
[2] = test system: L1210, CEM, HeLa, HMEC-1 cell lines; assay: Cytostatic activity against the tested cell lines; type: cell-based
[3] = test system: immortalized human dermal microvascular endothelial cells (HMEC-1); assay: Inhibition of proliferation of HMEC-1 cells; type: cell-based; settings: HMEC-1, read-out: IC50 HMEC-1
[4] = test system: a wide variety of DNA and RNA viruses; assay: Antiviral screening against a wide variety of DNA and RNA viruses; type: cell-based
[5] = test system: human cytomegalovirus Davis Strain; assay: Antiviral activity against human cytomegalovirus Davis strain in HEL cell cultures; type: cell-based
HEL cells = settings: minimum cytotoxic concentration
murine leukemia (L1210) = assay: Inhibition of proliferation of murine leukemia L1210 cells; type: cell-based; settings: Mus musculus, L1210, 48 h, read-out: IC50 L1210
TK− VZV Strain (07-1) = assay: microbe, parasite or virus in culture; type: cell-based, varicella-zoster virus; settings: Human alphaherpesvirus 3, HEL, read-out: Antiviral Activity EC50 TK− VZV Strain (07-1)
human T-lymphocyte (CEM) = assay: Inhibition of proliferation of human T-lymphocyte CEM cells; type: cell-based; settings: 72 h, read-out: IC50 CEM
[6] = test system: human cervix carcinoma (HeLa); assay: Inhibition of proliferation of human cervix carcinoma HeLa cells; type: cell-based; settings: 96 h, read-out: IC50 HeLa
TK+ VZV Strain (OKA) = assay: microbe, parasite or virus in culture; type: cell-based, varicella-zoster virus; settings: Human alphaherpesvirus 3, HEL, read-out: Antiviral Activity EC50 TK+ VZV Strain (OKA)
in vitro = settings: human
[7] = test system: human cytomegalovirus (HCMV); assay: Antiviral activity against HCMV, AD-169 and Davis strains (text summaries); type: cell-based; settings: Human betaherpesvirus 5, AD169; HEL cells; both AD-169 and Davis strains; read-out: EC50 against HCMV (range over AD-169 and Davis strains)
vaccinia virus (VACV) = settings: cited from earlier work
[8] = test system: herpes simplex virus 2 (HSV-2); design: method as in PMID 21969760; settings: cited from earlier work
[9] = test system: herpes simplex virus 1 (HSV-1); design: method as in PMID 21969760; settings: cited from earlier work
vaccinia virus = settings: E6SM cell cultures; cited from earlier work
[10] = test system: tobacco mosaic virus (TMV); design: method as in PMID 18259148; settings: in vivo; cited from earlier work
influenza A virus (H5N1) = settings: cited from earlier work
[11] = Human betaherpesvirus 5, AD169, HEL; read-out: Antiviral Activity EC50 AD-169 Strain
[12] = Human betaherpesvirus 5, HEL; read-out: Antiviral Activity EC50 Davis Strain

In the case of `COc1ncc(-c2ccc3nc(N)n(-c4ccccc4C(F)(F)F)c(=O)c3c2)cc1S(=O)(=O)Nc1ccc(F)cc1F` (atropisomer, axis not shown; (aS)) [(aS)-9], the “pIC50 PI4KIIIα” value (PI4KIIIα) is listed as 8.3.
For `CCOP(=O)(OCC)[C@H]1C[C@@H](c2nc3ccc(Br)cc3c(=O)[nH]2)ON1C` (relative stereo) [cis-11a, Diethyl cis-[5-(6-bromo-4-oxo-3,4-dihydroquinazolin-2-yl)-2-methylisoxazolidin-3-yl]phosphonate], the EC50 [1, 11] was greater than 100 µM, the “Inhibition of proliferation of the tested cell lines (in words)” value (from here on “Inhibition of proliferation … (in words)”) [2] was “did not inhibit proliferation” and the IC50 [3] was 140 ± 54 µM. The “Activity against tested viruses (in words)” value (shortened to “Activity”) [4] was “not active”, the EC50 [5, 12] was 100 µM and the “Cytotoxicity Cell Morphology MCC” value (HEL cells; Table 2 (VZV experiments)) was greater than 100 μM. The “Cytotoxicity Cell Morphology MCC” value (HEL cells; Table 3 (HCMV experiments)) was 20 μM, the IC50 (murine leukemia (L1210)) was greater than 250 µM and the EC50 (TK− VZV Strain (07-1)) was greater than 100 µM. It also gave an IC50 (human T-lymphocyte (CEM)) of 242 ± 7 µM, an IC50 [6] greater than 250 µM and an EC50 (TK+ VZV Strain (OKA)) greater than 100 µM.
With `CCOP(=O)(OCC)[C@H]1C[C@H](c2nc3ccc(Br)cc3c(=O)[nH]2)ON1C` (relative stereo) [trans-11a, Diethyl trans-[5-(6-bromo-4-oxo-3,4-dihydroquinazolin-2-yl)-2-methylisoxazolidin-3-yl]phosphonate] the EC50 [1, 11] was greater than 100 µM, the “Inhibition of proliferation … (in words)” value [2] was “did not inhibit proliferation” and the IC50 [3] was 85 ± 13 µM. The “Activity” value [4] was “not active”, the EC50 [5, 12] was greater than 100 µM and the “Cytotoxicity Cell Morphology MCC” value (HEL cells; Table 2 (VZV experiments)) was greater than 100 μM. The “Cytotoxicity Cell Morphology MCC” value (HEL cells; Table 3 (HCMV experiments)) was 100 μM, the IC50 (murine leukemia (L1210)) was 126 ± 19 µM and the EC50 (TK− VZV Strain (07-1)) was 66.9 µM. The IC50 (human T-lymphocyte (CEM)) was 148 ± 2 µM, the IC50 [6] was 196 ± 20 µM and the EC50 (TK+ VZV Strain (OKA)) was greater than 100 µM.
For `CCOP(=O)(OCC)[C@H]1C[C@H](c2nc3ccc(Br)cc3c(=O)n2Cc2ccc([N+](=O)[O-])cc2)ON1C` (relative stereo) [trans-11e, Diethyl trans-{5-[6-bromo-3-(4-nitrobenzyl)-4-oxo-3,4-dihydroquinazolin-2-yl]-2-methylisoxazolidin-3-yl}phosphonate], the EC50 [1, 11] was greater than 20 µM, the IC50 [3] was 26 ± 6 µM and the EC50 [5, 12] was greater than 20 µM. The “Cytotoxicity Cell Morphology MCC” value (HEL cells; Table 2 (VZV experiments)) was 20 μM, the “Cytotoxicity Cell Morphology MCC” value (HEL cells; Table 3 (HCMV experiments)) was 100 μM and the IC50 (murine leukemia (L1210)) was 18 µM. For the same compound, the EC50 (TK− VZV Strain (07-1)) was 7.51 µM, the IC50 (human T-lymphocyte (CEM)) was 17 ± 12 µM and the IC50 [6] was 24 ± 9 µM. For the same compound, the EC50 (TK+ VZV Strain (OKA)) was 6.84 µM.
With `CCOP(=O)(OCC)[C@H]1C[C@H](c2nc3ccc(Br)cc3c(=O)n2C)ON1C` (relative stereo) [trans-11j, Diethyl trans-{5-[6-bromo-3-methyl-4-oxo-3,4-dihydroquinazolin-2-yl]-2-methylisoxazolidin-3-yl}phosphonate] the EC50 [1, 11] was greater than 20 µM, the “Inhibition of proliferation … (in words)” value [2] was “did not inhibit proliferation” and the IC50 [3] was greater than 250 µM. For the same compound, the “Activity” value [4] was “not active”, the EC50 [5, 12] was greater than 100 µM and the “Cytotoxicity Cell Morphology MCC” value (HEL cells; Table 2 (VZV experiments)) was 20 μM. The “Cytotoxicity Cell Morphology MCC” value (HEL cells; Table 3 (HCMV experiments)) was 20 μM, the IC50 (murine leukemia (L1210)) was 138 ± 19 µM and the EC50 (TK− VZV Strain (07-1)) was greater than 4 µM. For the same compound, the IC50 (human T-lymphocyte (CEM)) was 128 ± 21 µM, the IC50 [6] was 175 ± 105 µM and the EC50 (TK+ VZV Strain (OKA)) was greater than 4 µM.
With `CCOP(=O)(OCC)[C@H]1C[C@H](c2nc3ccc(Br)cc3c(=O)n2CC)ON1C` (relative stereo) [trans-11k, Diethyl trans-{5-[6-bromo-3-ethyl-4-oxo-3,4-dihydroquinazolin-2-yl]-2-methylisoxazolidin-3-yl}phosphonate] the EC50 [1, 11] was greater than 20 µM, the “Inhibition of proliferation … (in words)” value [2] was “did not inhibit proliferation” and the “Activity” value [4] was “not active”. For the same compound, the EC50 [5, 12] was 44.7 µM, the “Cytotoxicity Cell Morphology MCC” value (HEL cells; Table 2 (VZV experiments)) was 100 μM and the “Cytotoxicity Cell Morphology MCC” value (HEL cells; Table 3 (HCMV experiments)) was 20 μM. For the same compound, the EC50 (TK− VZV Strain (07-1)) was greater than 20 µM and the EC50 (TK+ VZV Strain (OKA)) was greater than 20 µM.
For `O=c1[nH]cc(F)c(=O)[nH]1` [5-Fluorouracil, reference compound], the IC50 (murine leukemia (L1210); cell proliferation, two days) was 0.33 ± 0.17 µM, the IC50 (human T-lymphocyte (CEM); cell proliferation, three days) was 18 ± 5 µM and the IC50 ([6]; cell proliferation, four days) was 0.54 ± 0.12 µM.
For `Nc1nc2c(ncn2COCCO)c(=O)[nH]1` [Acyclovir], the CC50 (in vitro) was greater than 350 µM.
With `O=c1[nH]c(=O)n([C@H]2C[C@H](O)[C@@H](CO)O2)cc1/C=C/Br` [Brivudin, reference compound] the “Cytotoxicity Cell Morphology MCC” value (HEL cells; Table 2 (VZV experiments)) was greater than 300 μM, the EC50 (TK− VZV Strain (07-1)) was 31.9 ± 16.1 µM and the CC50 (in vitro) was greater than 300 µM. It also gave an EC50 (TK+ VZV Strain (OKA)) of 0.023 ± 0.008 µM.
`Nc1ccn(C[C@@H](CO)OCP(=O)(O)O)c(=O)n1` [Cidofovir, reference compound] showed an EC50 [1, 11] of 1.5 ± 0.2 µM, an EC50 [5, 12] of 1.7 ± 0.4 µM and an EC50 [7] of 1.5 to 1.7 µM. For the same compound, the “Cytotoxicity Cell Morphology MCC” value (HEL cells; Table 3 (HCMV experiments)) was greater than 300 μM and the CC50 (in vitro) was greater than 300 µM.
For `Nc1nc(O)c2ncn(COC(CO)CO)c2n1` [Ganciclovir, reference compound], the EC50 ([1]; Human betaherpesvirus 5, AD169, HEL, read-out: Antiviral Activity EC50 AD-169 Strain) was 16.9 ± 6.9 µM, the EC50 ([5]; Human betaherpesvirus 5, HEL, read-out: Antiviral Activity EC50 Davis Strain) was 7.7 ± 0.9 µM and the “Cytotoxicity Cell Morphology MCC” value (HEL cells; Table 3 (HCMV experiments)) was greater than 350 μM. It also gave a CC50 (in vitro) greater than 350 µM.
For `O=C(O)c1cc(Br)ccc1-n1c(-c2ccccc2)nc2ccc(Br)cc2c1=O` [compound 1, 5-bromo-2-(6-bromo-4-oxo-2-phenyl-4H-quinazolin-3-yl)-benzoic acid], the “EC50 vaccinia virus (VACV)” value (vaccinia virus (VACV)) is listed as 12 µg/mL (≈ 24 µM), the “EC50 HSV-2” value [8] is listed as 12 µg/mL (≈ 24 µM) and the “EC50 HSV-1” value [9] is listed as 12 µg/mL (≈ 24 µM).
For `CCc1nc(-n2c(-c3ccccc3)nc3ccc(Br)cc3c2=O)nc(N)c1-c1ccc(Cl)cc1` [compound 2], the MIC vaccinia virus (vaccinia virus) is given as 1.92 µg/mL (≈ 3.6 µM).
For `Cc1nc2ccc(Br)cc2c(=O)n1/N=C/c1ccccc1C(F)(F)F` [compound 3, 2-methyl-3-(substituted-benzalamino)-4(3H)-quinazolinone], the “curative effects against TMV” value [10] is listed as 54%.
In the case of `Cc1ccc(C(=O)/C=C/c2nc3ccc(I)cc3c(=O)n2-c2cccc(C(F)(F)F)c2)cc1` [compound 4], the “inhibition rate against H5N1” value (influenza A virus (H5N1)) is listed as 38%.
In the case of `CCNC(=S)N/N=C/c1nc2ccc(I)cc2c(=O)n1-c1cccc(C(F)(F)F)c1` [compound 5], the “inhibition rate against H5N1” value (influenza A virus (H5N1)) is listed as 47%.
In the case of `O=C(N/N=C/c1nc2ccc(I)cc2c(=O)n1-c1cccc(C(F)(F)F)c1)c1ccncc1` [compound 6], the “inhibition rate against H5N1” value (influenza A virus (H5N1)) is listed as 25%.
